Settings: Liquid, Closed cell (Static) method

FC(F)CC(F)(F)F [1,1,1,3,3-pentafluoropropane]
Settings	vapor or sublimation pressure [kPa]
260.32 K	28.52
272.13 K	50.91
281.15 K	75.62
293.31 K	122.98
305.49 K	192.78
313.62 K	254.28
321.4 K	324.38
333.49 K	467.72
345.16 K	642.26
351.47 K	754.32
364 K	1028.2
377.04 K	1378.2

C=C(Cl)C(F)(F)F [2-chloro-3,3,3-trifluoro-1-propene]
Settings	vapor or sublimation pressure [kPa]
263.25 K	43.43
264.27 K	45.2
265.23 K	47.13
266.27 K	48.88
267.16 K	51.02
267.22 K	50.69
268.2 K	52.65
269.08 K	55.2
270.04 K	57.24
270.94 K	59.24
270.95 K	59.34
271.9 K	61.45
273.85 K	66.42
274.8 K	68.69
275.39 K	70.68
277.03 K	75.24
277.96 K	77.86
278.77 K	80.2
278.99 K	81.33
279.8 K	83.72
280.56 K	85.87
281.62 K	89.39
282.8 K	93.36
283.65 K	95.62
284.51 K	98.59
285.1 K	100.84
286.15 K	103.78
287.18 K	107.59
288.59 K	113.2
289.24 K	115.72
290.31 K	120.08
292.2 K	128.29
294.48 K	138.49
296.12 K	146.32
297.41 K	152.85
298.46 K	158.2
299.53 K	164.03
300.22 K	167.73
301.38 K	174.15
303.03 K	183.59
304.22 K	191.32
305.36 K	198.32
306.37 K	205.25
307.38 K	212.61
308.45 K	219.76
309.44 K	226.88
311.14 K	239.23
312.65 K	250.71
313.32 K	255.58
314.65 K	265.41
315.41 K	271.67
316.41 K	279.99
317.54 K	288.86
318.54 K	296.49
319.54 K	305.35
320.2 K	312.84
321.51 K	323.9
322.28 K	330.9
322.39 K	331.79
323.27 K	340.55
324.4 K	351.13
325.16 K	359.71
326.17 K	370.1
327.54 K	383.61
328.16 K	390.36
329.38 K	402.72
330.27 K	412.59
331.36 K	424.58
332.28 K	434.81
333.1 K	444.59
333.37 K	447.55
334.34 K	462.26
335.18 K	468.47
336.2 K	480.83
337.33 K	494.73
338.3 K	506.41
339.24 K	518.13
340.43 K	533.53
341.35 K	545.17
342.25 K	558.82
342.53 K	561.23
344.38 K	589.61
345.78 K	613.34
346.77 K	629.58
347.88 K	646.33
348.77 K	660.14
349.98 K	679.92
350.86 K	695.77
352.84 K	728.61
354.89 K	762.84
356.87 K	799.73
358.89 K	838.22
360.78 K	874.39
362.63 K	916.57
364.64 K	957.2
366.88 K	1003.7
368.89 K	1047.8
370.88 K	1093
372.9 K	1138.9
